Results published in PubChem BioAssay (NCI).
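Growth conditions: 96-well plates. Treatment: test compound, 48 hours, 5 concentrations. Analysis: linear interpolation between bracketing concentrations; unreached endpoints set to highest concentration. GI50 marks 50% less growth. TGI: total growth inhibition.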

The compounds below were run on KM12 colon (assay: NCI-60 cell line screen, 48 h).

Row | Compound | TGI [µM] | GI50 [µM]
1 | CN1C(=O)c2ccccc2NC(=O)C12O[C@@H]2c1ccccc1 (some centres undefined) | > 100 | –
2 | CC1(C)[C@@H]2CC[C@@]1(C)CN(CCC[N+](C)(C)C)C2 | > 100 | –
3 | COc1cc(C(=O)N2CCN(C(=O)c3cc(OC)c(OC)c(OC)c3)C2=S)cc(OC)c1OC | 39.7 | 14.2
4 | O=C(CCn1ccnc1[N+](=O)[O-])NCCCn1ccnc1[N+](=O)[O-] | > 100 | –
5 | O=[N+]([O-])C(=C(Nc1ccccc1)Nc1ccccc1)C(Cl)=C(Cl)Cl | > 55.5 | –
6 | O=C1NC(N2CCOCC2)=N/C1=C\c1ccco1 | > 100 | –

What follows are compounds tested on RXF 393 renal (assay: NCI-60 cell line screen, 48 h).

Row | Compound | TGI [µM] | GI50 [µM]
7 | CC1(C)[C@@H]2CC[C@@]1(C)CN(CCC[N+](C)(C)C)C2 | > 100 | –
8 | COc1cc(C(=O)N2CCN(C(=O)c3cc(OC)c(OC)c(OC)c3)C2=S)cc(OC)c1OC | 28.1 | 14.3
9 | O=C(CCn1ccnc1[N+](=O)[O-])NCCCn1ccnc1[N+](=O)[O-] | > 100 | –
10 | O=[N+]([O-])C(=C(Nc1ccccc1)Nc1ccccc1)C(Cl)=C(Cl)Cl | 31.8 | –
11 | O=C1NC(N2CCOCC2)=N/C1=C\c1ccco1 | > 100 | –

Each compound was assayed on K-562 leukemia (assay: NCI-60 cell line screen, 48 h).

Row | Compound | TGI [µM] | GI50 [µM]
12 | CC1(C)[C@@H]2CC[C@@]1(C)CN(CCC[N+](C)(C)C)C2 | > 100 | –
13 | COc1cc(C(=O)N2CCN(C(=O)c3cc(OC)c(OC)c(OC)c3)C2=S)cc(OC)c1OC | > 100 | 24.9
14 | O=C(CCn1ccnc1[N+](=O)[O-])NCCCn1ccnc1[N+](=O)[O-] | > 100 | –
15 | O=[N+]([O-])C(=C(Nc1ccccc1)Nc1ccccc1)C(Cl)=C(Cl)Cl | 33.4 | –

The compounds below were run on LOX IMVI melanoma (assay: NCI-60 cell line screen, 48 h).

Row | Compound | TGI [µM] | GI50 [µM]
16 | CN1C(=O)c2ccccc2NC(=O)C12O[C@@H]2c1ccccc1 (some centres undefined) | > 100 | –
17 | CC1(C)[C@@H]2CC[C@@]1(C)CN(CCC[N+](C)(C)C)C2 | > 100 | –
18 | COc1cc(C(=O)N2CCN(C(=O)c3cc(OC)c(OC)c(OC)c3)C2=S)cc(OC)c1OC | 30.7 | 15.4
19 | O=C(CCn1ccnc1[N+](=O)[O-])NCCCn1ccnc1[N+](=O)[O-] | > 100 | –
20 | O=[N+]([O-])C(=C(Nc1ccccc1)Nc1ccccc1)C(Cl)=C(Cl)Cl | 25.1 | –
21 | O=C1NC(N2CCOCC2)=N/C1=C\c1ccco1 | > 100 | –

The compounds below were run on HT29 colon (assay: NCI-60 cell line screen, 48 h).

Row | Compound | TGI [µM] | GI50 [µM]
22 | CN1C(=O)c2ccccc2NC(=O)C12O[C@@H]2c1ccccc1 (some centres undefined) | > 100 | –
23 | CC1(C)[C@@H]2CC[C@@]1(C)CN(CCC[N+](C)(C)C)C2 | > 100 | –
24 | COc1cc(C(=O)N2CCN(C(=O)c3cc(OC)c(OC)c(OC)c3)C2=S)cc(OC)c1OC | 53.2 | 22.7
25 | O=C(CCn1ccnc1[N+](=O)[O-])NCCCn1ccnc1[N+](=O)[O-] | > 100 | –
26 | O=[N+]([O-])C(=C(Nc1ccccc1)Nc1ccccc1)C(Cl)=C(Cl)Cl | 34.6 | –
27 | O=C1NC(N2CCOCC2)=N/C1=C\c1ccco1 | > 100 | –

The compounds below were run on CCRF-CEM leukemia (assay: NCI-60 cell line screen, 48 h).

Row | Compound | TGI [µM] | GI50 [µM]
28 | CN1C(=O)c2ccccc2NC(=O)C12O[C@@H]2c1ccccc1 (some centres undefined) | > 100 | –
29 | CC1(C)[C@@H]2CC[C@@]1(C)CN(CCC[N+](C)(C)C)C2 | > 100 | –
30 | COc1cc(C(=O)N2CCN(C(=O)c3cc(OC)c(OC)c(OC)c3)C2=S)cc(OC)c1OC | 34.1 | 12.2
31 | O=C(CCn1ccnc1[N+](=O)[O-])NCCCn1ccnc1[N+](=O)[O-] | > 100 | –
32 | O=[N+]([O-])C(=C(Nc1ccccc1)Nc1ccccc1)C(Cl)=C(Cl)Cl | 28.1 | –
33 | O=C1NC(N2CCOCC2)=N/C1=C\c1ccco1 | > 100 | –

What follows are compounds tested on 786-0 renal (assay: NCI-60 cell line screen, 48 h).

Row | Compound | TGI [µM] | GI50 [µM]
34 | CN1C(=O)c2ccccc2NC(=O)C12O[C@@H]2c1ccccc1 (some centres undefined) | > 100 | –
35 | CC1(C)[C@@H]2CC[C@@]1(C)CN(CCC[N+](C)(C)C)C2 | > 100 | –
36 | COc1cc(C(=O)N2CCN(C(=O)c3cc(OC)c(OC)c(OC)c3)C2=S)cc(OC)c1OC | 26.8 | 11.4
37 | O=C(CCn1ccnc1[N+](=O)[O-])NCCCn1ccnc1[N+](=O)[O-] | > 100 | –
38 | O=[N+]([O-])C(=C(Nc1ccccc1)Nc1ccccc1)C(Cl)=C(Cl)Cl | 29.4 | –
39 | O=C1NC(N2CCOCC2)=N/C1=C\c1ccco1 | > 100 | –

What follows are compounds tested on HL-60(TB) leukemia (assay: NCI-60 cell line screen, 48 h).

Row | Compound | TGI [µM] | GI50 [µM]
40 | CN1C(=O)c2ccccc2NC(=O)C12O[C@@H]2c1ccccc1 (some centres undefined) | > 100 | –
41 | COc1cc(C(=O)N2CCN(C(=O)c3cc(OC)c(OC)c(OC)c3)C2=S)cc(OC)c1OC | 34.3 | 16
